Activity calls are given as the source filed them. The calls are words filed in the database; no cut-off is given here.
Tests used:
Mus musculus [1] = organism: Mus musculus; assay: Immuno-adjuvant activity in E2deltaTM3-immunized BALB/cj mouse assessed as neutralization of HCV H77 genotype 1a pseudotyped virus particle with pooled immune sera at 1 ug/ml; format: functional; conditions: dose 1 µg/ml
Mus musculus [2] = assay: Immuno-adjuvant activity in E2deltaTM3-immunized BALB/cj mouse assessed as potentiation of antibody response to E1E2 by measuring increase in serum anti-E1E2 IgG level administered subcutaneously as prime injection at 200 ug and 800 ug compound split over the remaining four days to give final dose of 1 mg followed by booster injection at four week intervals on day 28, 56 and 84 and measured at […] post-booster injection on days 34, 62 and 90 by ELISA; format: functional, organism-based

Row | Compound | Activity (Mus musculus [1]) [%] | Activity (Mus musculus [2])
1 | O=Cc1c(O)cccc1OCc1ccc(C(=O)O)cc1 [TUCARESOL] | 61 | –
2 | CCCCCCCCCCCCCCCCOc1cc(O)ccc1C=O | 78 | Active
3 | CCCCCCCCCCCCCCCCOc1ccc(O)c(O)c1C=O | 71 | Active
4 | CCCCCCCCCCCCCCCCOc1cccc(O)c1C=O | 59 | Active

— ChEMBL document CHEMBL4665915, “Evaluation of a Series of Lipidated Tucaresol Adjuvants in a Hepatitis C Virus Vaccine Model” (2020)
